Source: patent publication US20260115190A1, “DISPERSIONS OF ETRUMADENANT” (Arcus Biosciences, Inc., priority 2022, published 2026)

Columns and labels:
[1] = molecular target: P-gp (Homo sapiens, UniProt P08183); conditions: 200 mg QD itraconazole for 5 days; reported in the literature; cited from earlier work
[2] = Drug-drug interaction study with itraconazole; type: in vivo, humans; conditions: with coadministration of itraconazole
Description: An open-label, fixed-sequence, 2-period drug-drug interaction (DDI) study was designed to evaluate the effect of multiple doses of a strong inhibitor of CYP3A4 and P-gp on the single-dose PK of etrumadenant in humans. Etrumadenant was supplied as 25 mg capsules. Itraconazole was used as the representative strong inhibitor of CYP3A4 and P-gp. It was supplied as 10 mg/mL oral solution, Sporanox® by Janssen Pharmaceuticals (or generic equivalent). Twenty (20) healthy, adult male and female (of non-childbearing potential) participants were enrolled. Screening of participants occurred within 28 days prior to the first dosing.
On Day 1 of Period 1, a single 150 mg dose of etrumadenant was orally administered under fasting conditions (i.e., at least 10 hours of fasting prior to dosing and at least 4 hours postdose). PK sampling for etrumadenant and its metabolites was taken predose and up to 120 hours postdose. There was a washout of 5 days between the etrumadenant dose in Period 1 and the first itraconazole dose in Period 2.
In Period 2, 200 mg itraconazole was orally administered twice a day (BID) on Day 1 and once a day (QD) for 9 consecutive days (on Days 2 through 10) with a single 150 mg dose of etrumadenant orally administered 1 hour after itraconazole dosing on Day 6. Itraconazole was administered under fasting conditions. On Day 6, participants fasted for at least 10 hours prior to and at least 4 hours post etrumadenant dosing. PK sampling for etrumadenant and its metabolites was taken predose and up to 120 hours after etrumadenant dosing. PK sampling for itraconazole and 1-hydroxy-itraconazole was collected on Days 5, 6, 7, 9, and 11.
Itraconazole was administered twice on the first day of Period 2 as a loading dose to accelerate CYP3A inhibition and the inhibition was then maintained by administering itraconazole 200 mg QD for 9 consecutive days. A 200 mg BID dose level is expected to provide similar inhibition to a 400 mg QD dose. Although itraconazole reaches steady state within approximately 15 days, it has been established that QD administration of 200 mg itraconazole for 3 to 5 days allows maximum CYP3A inhibition sufficient to detect a DDI. […] As such, administration of itraconazole for at least 4 days is considered sufficient in DDI studies as a CYP3A4 and P-gp inhibitor. To maintain the level of inhibition, itraconazole was administered throughout PK sampling of etrumadenant (i.e., through Day 10 of Period 2). In addition, the itraconazole oral solution was administered under fasting conditions to maximize bioavailability.
Participants were housed on Day −1 of Period 1, at the time indicated by the clinical research unit (CRU), until after the 120-hour blood draw and completion of study procedures in Period 2. Safety was monitored throughout the study by repeated clinical and laboratory evaluations. In this study, there were no discontinued participants. All participants who received at least one dose of study drug (including participants who terminated the study early) were asked to return to the CRU approximately 14 days after the last dose for follow-up procedures, and to determine if any adverse event (AE) had occurred since the last study visit. All adverse events reported in the study were mild and resolved without treatment.

Sequence of P-gp (P08183 whole entry): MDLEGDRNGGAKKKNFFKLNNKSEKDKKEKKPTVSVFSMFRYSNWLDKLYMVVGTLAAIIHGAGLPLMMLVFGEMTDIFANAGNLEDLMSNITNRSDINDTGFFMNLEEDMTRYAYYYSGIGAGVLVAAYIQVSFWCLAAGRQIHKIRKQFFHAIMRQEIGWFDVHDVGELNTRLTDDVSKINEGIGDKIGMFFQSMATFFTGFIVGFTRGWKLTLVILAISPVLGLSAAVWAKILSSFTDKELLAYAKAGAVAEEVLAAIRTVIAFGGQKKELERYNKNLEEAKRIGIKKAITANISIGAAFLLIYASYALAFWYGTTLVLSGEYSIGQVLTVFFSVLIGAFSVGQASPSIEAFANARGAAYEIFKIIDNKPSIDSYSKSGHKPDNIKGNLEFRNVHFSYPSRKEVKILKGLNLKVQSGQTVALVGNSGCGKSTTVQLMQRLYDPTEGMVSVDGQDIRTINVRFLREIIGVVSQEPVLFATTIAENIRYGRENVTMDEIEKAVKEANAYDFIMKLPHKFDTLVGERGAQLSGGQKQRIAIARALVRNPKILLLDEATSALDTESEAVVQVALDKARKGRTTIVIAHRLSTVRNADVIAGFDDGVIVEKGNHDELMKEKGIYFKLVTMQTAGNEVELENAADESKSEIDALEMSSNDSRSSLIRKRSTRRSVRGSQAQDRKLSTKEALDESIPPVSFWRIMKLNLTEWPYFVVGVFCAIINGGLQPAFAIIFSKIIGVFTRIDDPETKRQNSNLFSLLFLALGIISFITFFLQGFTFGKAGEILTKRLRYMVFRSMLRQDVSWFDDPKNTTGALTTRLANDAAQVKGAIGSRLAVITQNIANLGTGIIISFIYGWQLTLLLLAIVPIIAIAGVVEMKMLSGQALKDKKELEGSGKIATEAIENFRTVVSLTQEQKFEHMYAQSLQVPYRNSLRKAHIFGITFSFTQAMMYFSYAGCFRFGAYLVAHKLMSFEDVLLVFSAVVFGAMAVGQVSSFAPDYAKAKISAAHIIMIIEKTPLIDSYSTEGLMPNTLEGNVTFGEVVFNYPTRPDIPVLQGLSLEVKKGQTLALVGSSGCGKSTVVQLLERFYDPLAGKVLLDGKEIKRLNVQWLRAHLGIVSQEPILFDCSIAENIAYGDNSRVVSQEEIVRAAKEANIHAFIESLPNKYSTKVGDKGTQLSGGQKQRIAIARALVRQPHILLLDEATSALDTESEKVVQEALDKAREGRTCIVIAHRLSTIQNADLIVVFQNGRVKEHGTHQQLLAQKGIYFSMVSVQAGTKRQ

| SMILES | increase of oral digoxin AUC [1] | decrease in metabolite-to-parent ratio MP AUC0-24 [2] | decrease in metabolite-to-parent ratio MP Cmax [2] [%] |
| --- | --- | --- | --- |
| C[C@H]1O[C@@H](O[C@H]2[C@@H](O)C[C@H](O[C@H]3[C@@H](O)C[C@H](O[C@H]4CC[C@@]5(C)[C@H](CC[C@@H]6[C@@H]5C[C@@H](O)[C@]5(C)[C@@H](C7=CC(=O)OC7)CC[C@]65O)C4)O[C@@H]3C)O[C@@H]2C)C[C@H](O)[C@@H]1O [digoxin] | approximately 1.7 fold |  |  |
| Cc1c(C#N)cccc1-c1cc(-c2c[nH]nn2)nc(N)n1 [N-dealkylated etrumadenant] |  | approximately 87% | ~90 |
